The values below are quoted from earlier work in patent US20250025568A1, “COMBINATION OF ANTIBODY-DRUG CONJUGATE AND PARP1 SELECTIVE INHIBITOR” (AstraZeneca UK Limited, priority 2021, published 2025).

In one data set the test system is WT DLD-1. The conditions noted are these: 4 day compound dosing; read-out: WT DLD-1 prolif 4 d IC50; cited from earlier work.
The test system of the next data set is BRCA2 −/− DLD-1. To be noted: 4 day compound dosing; read-out: BRCA2 −/− DLD-1 prolif 4 d IC50; cited from earlier work.

Turning to `CCc1cc2cnc(CN3CCN(c4ccc(C(=O)NC)nc4)CC3)cc2[nH]c1=O` [Example 1, 5-[4-[(3-ethyl-2-oxo-1H-1,6-naphthyridin-7-yl)methyl]piperazin-1-yl]-N-methyl-pyridine-2-carboxamide], the IC50 in the data set with WT DLD-1 is > 30000 nM; with BRCA2 −/− DLD-1, 10 nM.

For the compound `CCc1cc2cnc(CN3CCN(c4ccc(C(=O)NC)nc4F)CC3)cc2[nH]c1=O` [Example 2, 5-[4-[(3-ethyl-2-oxo-1H-1,6-naphthyridin-7-yl)methyl]piperazin-1-yl]-6-fluoro-N-methyl-pyridine-2-carboxamide], the IC50 was > 30000 nM in the data set with WT DLD-1 and 8 nM with BRCA2 −/− DLD-1.

As to `CCc1cc2cnc(CN3CCN(c4ccc(C(=O)NC)nc4Cl)CC3)cc2[nH]c1=O` [Example 3, 6-chloro-5-[4-[(3-ethyl-2-oxo-1H-1,6-naphthyridin-7-yl)methyl]piperazin-1-yl]-N-methyl-pyridine-2-carboxamide], the figures for the IC50 in the data set on WT DLD-1 and in the data set on BRCA2 −/− DLD-1 were > 30000 nM and 4 nM, respectively.

For the compound `CCc1cc2ncc(CN3CCN(c4ccc(C(=O)NC)nc4F)CC3)cc2[nH]c1=O` [Example 5, 5-[4-[(7-ethyl-6-oxo-5H-1,5-naphthyridin-3-yl)methyl]piperazin-1-yl]-6-fluoro-N-methyl-pyridine-2-carboxamide], the IC50 was > 30000 nM in the data set with WT DLD-1 and 6 nM in the data set on BRCA2 −/− DLD-1.

In the case of `CCc1cc2ncc(CN3CCN(c4ccc(C(=O)NC)nc4Cl)CC3)cc2[nH]c1=O` [Example 6, 6-chloro-5-[4-[(7-ethyl-6-oxo-5H-1,5-naphthyridin-3-yl)methyl]piperazin-1-yl]-N-methyl-pyridine-2-carboxamide], the IC50 in the data set with WT DLD-1 was > 30000 nM; in the data set with BRCA2 −/− DLD-1 it was 6 nM.

As for `CCc1cc2ncc(CN3CCN(c4ccc(C(N)=O)nc4)CC3)cc2[nH]c1=O` [Example 7, 5-[4-[(7-ethyl-6-oxo-5H-1,5-naphthyridin-3-yl)methyl]piperazin-1-yl]pyridine-2-carboxamide], the IC50 in the data set with BRCA2 −/− DLD-1 is 4140 nM.

For `CCc1nc(C(=O)NC)ccc1N1CCN(Cc2ccc3nc(CC)c(=O)[nH]c3c2)CC1` [Example 8, 6-ethyl-5-[4-[(2-ethyl-3-oxo-4H-quinoxalin-6-yl)methyl]piperazin-1-yl]-N-methyl-pyridine-2-carboxamide], in the data set with WT DLD-1, the IC50 was > 19000 nM.

`CCc1nc2ccc(CN3CCN(c4ccc(C(=O)NC)nc4C(F)(F)F)CC3)cc2[nH]c1=O` [Example 9, 5-[4-[(2-ethyl-3-oxo-4H-quinoxalin-6-yl)methyl]piperazin-1-yl]-N-methyl-6-(trifluoromethyl)pyridine-2-carboxamide]: the IC50 in the data set on WT DLD-1 is 17000 nM; in the data set on BRCA2 −/− DLD-1, 10 nM.

In the case of `CCc1nc2ccc(CN3CCN(c4ccc(C(=O)NC)nc4C(F)F)CC3)cc2[nH]c1=O` [Example 10, 6-(difluoromethyl)-5-[4-[(2-ethyl-3-oxo-4H-quinoxalin-6-yl)methyl]piperazin-1-yl]-N-methyl-pyridine-2-carboxamide], the IC50 with WT DLD-1 is > 30000 nM; in the data set with BRCA2 −/− DLD-1 it was 6 nM.

For `CCc1nc2ccc(CN3CCN(c4ccc(C(=O)NC)nc4)CC3)cc2[nH]c1=O` [Example 11, 5-[4-[(2-ethyl-3-oxo-4H-quinoxalin-6-yl)methyl]piperazin-1-yl]-N-methyl-pyridine-2-carboxamide], the IC50 in the data set on WT DLD-1 is > 30000 nM; in the data set on BRCA2 −/− DLD-1, 184 nM.

Take `CCCc1nc2ccc(CN3CCN(c4ccc(C(=O)NC)nc4Cl)CC3)cc2[nH]c1=O` [Example 19, 6-chloro-N-methyl-5-[4-[(3-oxo-2-propyl-4H-quinoxalin-6-yl)methyl]piperazin-1-yl]pyridine-2-carboxamide]: the IC50 in the data set with WT DLD-1 was > 30000 nM.

Turning to `CNC(=O)c1ccc(N2CCN(Cc3ccc4nc(CCF)c(=O)[nH]c4c3)CC2)cn1` [Example 25, 5-[4-[[2-(2-fluoroethyl)-3-oxo-4H-quinoxalin-6-yl]methyl]piperazin-1-yl]-N-methyl-pyridine-2-carboxamide], the IC50 with WT DLD-1 is > 25000 nM.
